Molecules are shown by their SMILES.

Our source for the IC50 values is patent US9670212B2, “Inhibitors of PI3K-delta and methods of their use and manufacture” (Exelixis, Inc., priority 2010, dated 2017).

Sequence of PI3K delta (O00329 whole entry): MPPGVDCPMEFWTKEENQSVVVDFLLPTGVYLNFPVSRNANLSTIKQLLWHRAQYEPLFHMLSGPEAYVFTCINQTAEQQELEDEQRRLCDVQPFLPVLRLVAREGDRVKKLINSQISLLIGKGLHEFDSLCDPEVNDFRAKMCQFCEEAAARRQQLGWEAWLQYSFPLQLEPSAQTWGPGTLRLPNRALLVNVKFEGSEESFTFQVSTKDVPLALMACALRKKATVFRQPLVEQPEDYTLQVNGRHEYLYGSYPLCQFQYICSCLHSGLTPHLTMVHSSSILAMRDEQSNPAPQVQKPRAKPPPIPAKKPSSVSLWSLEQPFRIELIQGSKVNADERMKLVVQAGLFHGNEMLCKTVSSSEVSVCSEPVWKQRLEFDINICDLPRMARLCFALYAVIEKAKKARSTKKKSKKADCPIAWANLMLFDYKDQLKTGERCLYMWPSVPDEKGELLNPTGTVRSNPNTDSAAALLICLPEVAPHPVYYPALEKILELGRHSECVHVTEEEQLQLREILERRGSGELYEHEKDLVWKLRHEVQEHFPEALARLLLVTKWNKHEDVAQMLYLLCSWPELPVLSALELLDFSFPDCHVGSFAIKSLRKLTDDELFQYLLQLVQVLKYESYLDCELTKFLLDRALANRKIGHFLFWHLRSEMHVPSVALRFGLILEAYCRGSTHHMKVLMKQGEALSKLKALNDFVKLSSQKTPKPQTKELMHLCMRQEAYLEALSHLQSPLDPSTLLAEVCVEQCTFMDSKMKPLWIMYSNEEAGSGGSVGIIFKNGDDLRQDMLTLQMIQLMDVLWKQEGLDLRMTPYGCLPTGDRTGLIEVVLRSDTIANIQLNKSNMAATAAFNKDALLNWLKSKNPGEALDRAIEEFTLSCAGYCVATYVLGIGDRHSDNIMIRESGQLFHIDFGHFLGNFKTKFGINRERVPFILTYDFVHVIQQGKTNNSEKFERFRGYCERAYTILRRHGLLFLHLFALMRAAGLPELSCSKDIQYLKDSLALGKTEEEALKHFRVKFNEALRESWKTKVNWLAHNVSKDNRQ
Sequence of PI3K delta (P27986 whole entry partner): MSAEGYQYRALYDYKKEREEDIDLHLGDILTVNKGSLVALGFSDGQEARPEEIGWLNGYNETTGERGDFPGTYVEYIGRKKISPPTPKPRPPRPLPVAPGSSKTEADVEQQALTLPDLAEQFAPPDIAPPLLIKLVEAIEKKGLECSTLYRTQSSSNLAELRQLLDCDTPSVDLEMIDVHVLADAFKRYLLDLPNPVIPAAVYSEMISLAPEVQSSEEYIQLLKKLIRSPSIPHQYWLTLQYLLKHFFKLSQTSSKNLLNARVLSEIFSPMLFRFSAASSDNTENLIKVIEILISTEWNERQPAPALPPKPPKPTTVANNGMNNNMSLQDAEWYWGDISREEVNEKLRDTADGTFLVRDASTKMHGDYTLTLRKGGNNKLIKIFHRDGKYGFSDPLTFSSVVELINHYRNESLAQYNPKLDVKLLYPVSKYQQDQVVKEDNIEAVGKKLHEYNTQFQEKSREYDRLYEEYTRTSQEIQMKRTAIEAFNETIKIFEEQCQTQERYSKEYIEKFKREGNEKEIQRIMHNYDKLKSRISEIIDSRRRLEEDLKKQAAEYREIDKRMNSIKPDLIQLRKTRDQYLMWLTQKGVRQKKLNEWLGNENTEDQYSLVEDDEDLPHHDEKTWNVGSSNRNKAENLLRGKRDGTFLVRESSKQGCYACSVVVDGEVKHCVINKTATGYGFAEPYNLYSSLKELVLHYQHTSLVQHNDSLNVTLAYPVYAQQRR

This experiment concerns the target PI3K delta (Homo sapiens (Human), UniProt O00329). Kind of experiment: Luciferase-coupled chemiluminescence kinase assay (KinaseGlo, ATP consumption). It is filed as biochemical. Here is the method: Kinase activity and compound inhibition were investigated using one or more of the assay formats described below. The ATP concentrations used in the various assays were approximately equal to or less than the KM for each of the respective kinases. Dose-response experiments were performed using an intra-plate dilution scheme with 10 different inhibitor concentrations in a 384-well microtiter plate. […] Typically N should approximate unity. Curve fitting was performed using XLFit or ActivityBase. Luciferase-Coupled Chemiluminescence Assay Protocol
Kinase activity is measured as the percent of ATP consumed following the kinase reaction using luciferase-luciferin-coupled chemiluminescence. […] Kinase reactions were initiated by combining test compounds, kinase, and ATP in a 20 μL volume (6 μL volume for 1536-well plate). The reaction mixture was incubated at ambient temperature for 2 h. Following the kinase reaction, a 20 μL (or 3 μL for 1536-well plate) aliquot of KinaseGlo (Promega) was added and the chemiluminescence signal measured using an EnVision plate reader (Perkin Elmer).
Background: In Kinase-Glo more light means more ATP remaining.
What is called IC50 is the midpoint of a concentration-inhibition curve. Low values mean greater potency, high ones weaker potency. In the case of `Cc1cccc2cc(CNC(=O)c3nccnc3N)c(N3CCCN(CC(=O)N(C)C)CC3)nc12` [Compound 66, 3-amino-N-[(2-{4-[2-(dimethylamino)-2-oxoethyl]-1,4-diazepan-1-yl}-8-methylquinolin-3-yl)methyl]pyrazine-2-carboxamide], the half-inhibitory concentration (IC50) is 500 to 1500 nM. In turn, `Cc1ccccc1-n1c(CNC(=O)c2nc(Br)cnc2N)nc2cccc(C)c2c1=O` [Compound 160, 3-amino-6-bromo-N-{[5-methyl-3-(2-methylphenyl)-4-oxo-3,4-dihydroquinazolin-2-yl]methyl}pyrazine-2-carboxamide] displayed an IC50 of 500 to 1500 nM.

Compound `Cc1cccc2cc(CNC(=O)c3nccnc3N)c(-n3ccnc3)nc12` [Compound 111, 3-amino-N-{[2-(1H-imidazol-1-yl)-8-methylquinolin-3-yl]methyl}pyrazine-2-carboxamide] yielded an IC50 of 250 to 500 nM. On to `Cc1ccccc1-c1cc2ccccc2nc1Cn1cnc2c(N)ncnc21` [Compound 179, 9-{[3-(2-methylphenyl)quinolin-2-yl]methyl}-9H-purin-6-amine], for which the half-inhibitory concentration (IC50) lay in the range of 500 to 1500 nM. In turn, `Cc1cccc2cc(CNc3ncnc4[nH]cnc34)c(N3CCCN(C)CC3)nc12` [Compound 146, N-{[8-methyl-2-(4-methyl-1,4-diazepan-1-yl)quinolin-3-yl]methyl}-9H-purin-6-amine] had an IC50 of less than 50 nM. `Cc1ccccc1-c1c(Cn2cnc3c(N)ncnc32)nc2ccccc2c1C` [Compound 168, 9-{[4-methyl-3-(2-methylphenyl)quinolin-2-yl]methyl}-9H-purin-6-amine]: the half-inhibitory concentration (IC50) was in the range of 500 to 1500 nM. The value for `Cc1ccccc1-c1cc2ccccc2nc1C(C)n1nc(I)c2c(N)ncnc21` (centres unmarked) [Compound 117, 3-iodo-1-{1-[3-(2-methylphenyl)quinolin-2-yl]ethyl}-1H-pyrazolo[3,4-d]pyrimidin-4-amine] was less than 50 nM; that for `Cc1cccc2cc(Cn3cnc4c(N)ncnc43)c(-c3ccccc3C(F)(F)F)nc12` [Compound 182, 9-({8-methyl-2-[2-(trifluoromethyl)phenyl]quinolin-3-yl}methyl)-9H-purin-6-amine] was 50 to 250 nM; that for `Cc1cccc2cc(CNC(=O)c3nccnc3N)c(N3CCCN(C(=O)Cn4ccnc4C)CC3)nc12` [Compound 55, 3-amino-N-[(8-methyl-2-{4-[(2-methyl-1H-imidazol-1-yl)acetyl]-1,4-diazepan-1-yl}quinolin-3-yl)methyl]pyrazine-2-carboxamide] was 500 to 1500 nM. `Cc1cccc2cc(CNC(=O)c3nccnc3N)c(N(C)CCN(C)C(=O)[C@H]3CCCN3C(C)C)nc12` [Compound 73, 3-amino-N-({8-methyl-2-[methyl(2-{methyl[1-(1-methylethyl)-D-prolyl]amino}ethyl)amino]quinolin-3-yl}methyl)pyrazine-2-carboxamide] had an IC50 of less than 50 nM.

`Nc1nccnc1C(=O)NCc1nc2ccccc2cc1-c1cscn1` [Compound 91, 3-amino-N-{[3-(1,3-thiazol-4-yl)quinolin-2-yl]methyl}pyrazine-2-carboxamide]: the half-maximal inhibitory concentration (IC50) fell in the range of 500 to 1500 nM. Compound `Cc1cccc2cc(CNC(=O)c3nccnc3N)c(N(Cc3cccnc3)Cc3cccnc3)nc12` [Compound 46, 3-amino-N-({2-[bis(pyridin-3-ylmethyl)amino]-8-methylquinolin-3-yl}methyl)pyrazine-2-carboxamide] came in with an IC50 of 250 to 500 nM.

Compound `Cc1ccccc1-n1c(CNC(=O)c2ccnc(N)c2)nc2cccc(C)c2c1=O` [Compound 174, 2-amino-N-{[5-methyl-3-(2-methylphenyl)-4-oxo-3,4-dihydroquinazolin-2-yl]methyl}pyridine-4-carboxamide] had an IC50 of 500 to 1500 nM. As for `Cc1cccc2cc(Cn3cnc4c(N)ncnc43)c(N(C)CCN(C)C(=O)Cn3ccnn3)nc12` [Compound 34, N-{2-[{3-[(6-amino-9H-purin-9-yl)methyl]-8-methylquinolin-2-yl}(methyl)amino]ethyl}-N-methyl-2-(1H-1,2,3-triazol-1-yl)acetamide], the half-inhibitory concentration (IC50) was less than 50 nM. In turn, `Cc1cccc2cc(CNC(=O)c3nccnc3N)c(N(C)C3CCN(C)C3)nc12` (centres unmarked) [Compound 98, 3-amino-N-({8-methyl-2-[methyl(1-methylpyrrolidin-3-yl)amino]quinolin-3-yl}methyl)pyrazine-2-carboxamide] showed an IC50 of 50 to 250 nM.

Take `Cc1cccc2cc(CNC(=O)c3nccnc3N)c(N(C)CCN(C)C(=O)CN)nc12` [Compound 115, 3-amino-N-({2-[{2-[glycyl(methyl)amino]ethyl}(methyl)amino]-8-methylquinolin-3-yl}methyl)pyrazine-2-carboxamide]: the IC50 lay within 50 to 250 nM.

`CNCCN(C)c1nc2c(C)cccc2cc1CNC(=O)C1(C(=O)NC)CC1` [Compound 40, N-methyl-N′-[(8-methyl-2-{methyl[2-(methylamino)ethyl]amino}quinolin-3-yl)methyl]cyclopropane-1,1-dicarboxamide] had an IC50 of 500 to 1500 nM.

For `CC(=O)N1CCN(c2nc3c(C)cccc3cc2Cn2cnc3c(N)ncnc32)CC1` [Compound 166, 9-{[2-(4-acetylpiperazin-1-yl)-8-methylquinolin-3-yl]methyl}-9H-purin-6-amine], the concentration for half-maximal inhibition (IC50) fell in the range of 50 to 250 nM. Turning to `CN(C)Cc1ccccc1-c1cc2ccccc2nc1CNC(=O)c1nccnc1N` [Compound 92, 3-amino-N-[(3-{2-[(dimethylamino)methyl]phenyl}quinolin-2-yl)methyl]pyrazine-2-carboxamide], the half-maximal inhibitory concentration (IC50) lay in the range of 50 to 250 nM.

As to `Cc1cccc2cc(CNC(=O)c3nccnc3N)c(N3CCCN(C(=O)Cn4nccn4)CC3)nc12` [Compound 61, 3-amino-N-({8-methyl-2-[4-(2H-1,2,3-triazol-2-ylacetyl)-1,4-diazepan-1-yl]quinolin-3-yl}methyl)pyrazine-2-carboxamide], the concentration for half-maximal inhibition (IC50) is 500 to 1500 nM. For the compound `Cc1cccc2cc(CNC(=O)c3nccnc3N)c(N(C)CCN(C)Cc3cccnc3)nc12` [Compound 83, 3-amino-N-{[8-methyl-2-(methyl{2-[methyl(pyridin-3-ylmethyl)amino]ethyl}amino)quinolin-3-yl]methyl}pyrazine-2-carboxamide], the half-maximal inhibitory concentration (IC50) was less than 50 nM. In the case of `Cc1cccc2cc(Cn3cnc4c(N)ncnc43)c(N(C)CC3CCCN3C)nc12` (centres unmarked) [Compound 2, 3-[(6-amino-9H-purin-9-yl)methyl]-N,8-dimethyl-N-[(1-methylpyrrolidin-2-yl)methyl]quinolin-2-amine], the concentration for half-maximal inhibition (IC50) is less than 50 nM. In the case of `Cc1ccccc1-n1c(CCN)nc2cccc(C)c2c1=O` [Compound 157, 2-(2-aminoethyl)-5-methyl-3-(2-methylphenyl)quinazolin-4(3H)-one], the half-maximal inhibitory concentration (IC50) lay in the range of 500 to 1500 nM. Take `Cc1ccccc1-n1c(CNC(=O)c2cccnc2N)nc2cccc(C)c2c1=O` [Compound 176, 2-amino-N-{[5-methyl-3-(2-methylphenyl)-4-oxo-3,4-dihydroquinazolin-2-yl]methyl}pyridine-3-carboxamide]: the half-maximal inhibitory concentration (IC50) lay within 500 to 1500 nM. In the case of `Cc1cccc2cc(CNC(=O)c3nccnc3N)c(N(C)CCN(C)C(=O)c3cnccn3)nc12` [Compound 78, 3-amino-N-{[8-methyl-2-(methyl{2-[methyl(pyrazin-2-ylcarbonyl)amino]ethyl}amino)quinolin-3-yl]methyl}pyrazine-2-carboxamide], the concentration for half-maximal inhibition (IC50) lay within 500 to 1500 nM. Turning to `Cc1ccccc1-c1cc2ccccc2nc1CNc1cncnc1N` [Compound 132, N-5-{[3-(2-methylphenyl)quinolin-2-yl]methyl}pyrimidin-4,5-diamine], the IC50 is 500 to 1500 nM.
